Laboratory results reported in PubChem BioAssay AID1963838 (Molecular Pharmacology Branch, DTP, NCI, 2024).
Where “and” joins values, the source holds several entries; their conditions need not be identical. Identical values can stand only once.

Tested on: 855422-203-R-J1-PDC complex spheroid viability
Experiment: Anticancer human tumor 855422-203-R-J1-PDC patient-derived bladder carcinoma cell line growth inhibition [POLQ]
Conditions: for viability, T/C: stronger effect = lower value
Description: Multicellular complex tumor spheroid response to Polymerase (POL) inhibitors (novobiocin, ART-558, RP6685) in combination with a variety of drugs and investigational agents in selected tumor cell lines
The POL inhibitors (novobiocin, ART-558, and RP6685) were evaluated both individually and in combination with standard of care and investigational anticancer small molecules within a complex spheroid model of solid tumors. . Complex spheroids include a stromal component modeled by human endothelial cells (HUVEC) and fibroblasts modeled by human mesenchymal stem cells (MSCs). The concentration ranges selected for each drug and investigational agent were based upon clinically achievable concentrations if the clinical Cmax of the agent was known.
Compounds. The drugs and investigational agents: novobiocin (NSC847541), ART-558 (NSC835418), RP-6685 (NSC848927), peposertib (NSC802822), ceralasertib (NSC780249), elimusertib (NSC800525), camonsertib (NSC841442), AZD-1390 (NSC803789), olaparib (NSC753686), talazoparib (NSC767125), rucaparib (NSC756644), sotorasib (NSC818433), MRTX-1133 (NSC836407), SN-38 (NSC673596), topotecan (NSC609699), epotoside (NSC141540), doxorubicin (NSC123127), gemcitabine (NSC613327), 5-fluorouracil (NSC19893), paclitaxel (NSC125973), vemurafenib (NSC761431), MSA-2 (NSC828583), SN-011 (NSC837082), adavosertib (NSC754352), prexasertib (NSC758257), carboplatin (NSC241240) and oxaliplatin (NSC266046), were obtained from the National Cancer Institute (NCI) Developmental Therapeutics Program Chemical Repository (21). The FDA-approved anticancer drug set is available from the Developmental Therapeutics Program at https://dtp.cancer.gov/organization/dscb/obtaining/. […] The stock solutions were prepared in dimethyl sulfoxide (DMSO, Sigma-Aldrich, St. Louis, MO, cat. D2650), except for the platinum compounds which were prepared in saline (Quality Biological, Gaithersburg, MD, cat. 114-055-101), at 800-fold the tested concentration and stored at -70 degrees C prior to their use. All drugs and investigational agents were tested over a range starting from a high concentration at or near the clinical Cmax and decreasing in half-log increments. If the clinical Cmax for an agent had not been determined, the highest concentration tested was 10 microM, except for SN-38, which was tested at a high concentration of 1 microM.
Cell Culture. All cells were maintained in an incubator at 37 degrees C and 5% CO2 with 95% humidity. The PDC lines were cultured according to standard operating procedures established by the NCI PDMR (https://pdmr.cancer.gov). Table 3 of the manuscript, lists the cell lines along with the number of the three cell types plated to form the mct-spheroids and media for tumor cell growth. After thawing, all PDC lines, except 997537-175-T-J1-PDC and 415267-285-R-J2-PDC, were cultured in Matrigel-coated flasks prepared with a working solution of 1X Ham's F-12 nutrient mix, without supplementation (Thermo Fisher Scientific, cat. 11765054), 100 U/mL penicillin-streptomycin (Thermo Fisher Scientific, cat. 15140122), and 2.5% Matrigel (Corning Inc., Corning, NY, cat. 354248) for the first three passages. The two PDC lines 997537-175-T-J1-PDC and 415267-285-R-J2-PDC were cultured on uncoated flasks. The 857933-349-R-J2-PDC line was cultured in 6C/Colon 1B media containing advanced DMEM/F-12 (Thermo Fisher Scientific, cat. 12634028), 10 mM HEPES (Thermo Fisher Scientific, cat. 15630080), 1X GlutaMAX supplement (Thermo Fisher Scientific, cat. 35050061), 0.1 mg/mL primocin (InvivoGen, San Diego, CA, cat. ant-pm-2), 10% defined fetal bovine serum, heat inactivated (HyClone Laboratories Inc., Logan, UT, cat. SH30070.03HI), 50% L-WRN conditioned media (ATCC, cat. CRL-3276), 1.25 mM N-Acetyl-L-cysteine (Sigma-Aldrich, cat. A9165), 10 mM nicotinamide (Sigma-Aldrich, cat. N0636), 1X B-27 supplement (Thermo Fisher Scientific, cat. 17504044), 1X N-2 supplement (Thermo Fisher Scientific, cat. […]
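Also: spheroids exposed to compounds for seven days before readout.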

SMILES: CC(=O)O[C@H]1C(=O)[C@@]2(C)[C@H]([C@H](OC(=O)c3ccccc3)[C@]3(O)C[C@H](OC(=O)[C@H](O)[C@@H](NC(=O)c4ccccc4)c4ccccc4)C(C)=C1C3(C)C)[C@]1(OC(C)=O)CO[C@@H]1C[C@@H]2O
- viability, T/C (compound 0.00949 µM): 13.3% and 11.4% and 6.22%
- viability, T/C (compound 0.03 µM): 9.21% and 8.32% and 5.81%
- viability, T/C (compound 0.0949 µM): 10.3% and 7.91% and 5.5%
- viability, T/C (compound 0.3 µM): 7.66% and 7.33% and 5.13%
- viability, T/C (compound 0.949 µM): 6.14% and 7.78% and 6.34%
- viability, T/C (compound 3 µM): 7.69% and 7.6% and 7.01%
- IC50 (curve of compound): < 9.49 nM

SMILES: O=C(Nc1ccc(O)c(NS(=O)(=O)c2ccc(F)cc2)c1)c1ccc(-c2ccccc2)cc1
- viability, T/C (compound 0.0316 µM): 106% and 92.6% and 110%
- viability, T/C (compound 0.1 µM): 118% and 99.2% and 113%
- viability, T/C (compound 0.316 µM): 98.8% and 110% and 113%
- viability, T/C (compound 1 µM): 112% and 108% and 97.7%
- viability, T/C (compound 3.16 µM): 99.4% and 106% and 92.8%
- viability, T/C (compound 10 µM): 74% and 70.5% and 45.6%
- IC50 (curve of compound): > 10000 nM and 9080 nM

SMILES: C=CC(=O)N1CCN(c2nc(=O)n(-c3c(C)ccnc3C(C)C)c3nc(-c4c(O)cccc4F)c(F)cc23)C(C)C1 (stereo not drawn)
- viability, T/C (compound 0.0316 µM): 106% and 101% and 103%
- viability, T/C (compound 0.1 µM): 89% and 126% and 115%
- viability, T/C (compound 0.316 µM): 117% and 111% and 114%
- viability, T/C (compound 1 µM): 101% and 130% and 102%
- viability, T/C (compound 3.16 µM): 129% and 144% and 132%
- viability, T/C (compound 10 µM): 127% and 135% and 113%
- IC50 (curve of compound): > 10000 nM

SMILES: O=c1[nH]cc(F)c(=O)[nH]1
- viability, T/C (compound 0.0316 µM): 116% and 95.4% and 99.2%
- viability, T/C (compound 0.1 µM): 105% and 104% and 102%
- viability, T/C (compound 0.316 µM): 61.8% and 118% and 55.4%
- viability, T/C (compound 1 µM): 32.8% and 67% and 34.3%
- viability, T/C (compound 3.16 µM): 29.6% and 40.2% and 26.3%
- viability, T/C (compound 10 µM): 23.3% and 44.2% and 22.9%
- IC50 (curve of compound): 507 nM and 2200 nM and 405 nM

SMILES: CCc1cc2c(N3CCc4c(cc(Cn5ccnc5)cc4-c4cn(C)nc4C(F)(F)F)C3=O)cc(C)nc2c(OC)n1
- viability, T/C (compound 0.0316 µM): 89.8% and 99.4% and 115%
- viability, T/C (compound 0.1 µM): 81.6% and 103% and 101%
- viability, T/C (compound 0.316 µM): 74.5% and 132% and 120%
- viability, T/C (compound 1 µM): 62.8% and 85.8% and 94.5%
- viability, T/C (compound 3.16 µM): 49.1% and 62% and 75.6%
- viability, T/C (compound 10 µM): 26.1% and 50.8% and 38.6%
- IC50 (curve of compound): 2620 nM and > 10000 nM and 6960 nM

SMILES: Cn1ncnc1[C@H]1c2n[nH]c(=O)c3cc(F)cc(c23)N[C@@H]1c1ccc(F)cc1
- viability, T/C (compound 0.000316 µM): 108% and 99.8% and 105%
- viability, T/C (compound 0.001 µM): 97% and 116% and 97.1%
- viability, T/C (compound 0.00316 µM): 108% and 105% and 111%
- viability, T/C (compound 0.01 µM): 108% and 122% and 110%
- viability, T/C (compound 0.0316 µM): 102% and 93.4% and 118%
- viability, T/C (compound 0.1 µM): 96.6% and 134% and 88.6%
- IC50 (curve of compound): > 100 nM

SMILES: Cc1cccc(N(C)C(=O)C2C(O)CCN2c2nc(C)cc(C(F)(F)F)c2C#N)c1 (stereo not drawn)
- viability, T/C (compound 0.0316 µM): 107% [middle of 13 runs]
- viability, T/C (compound 0.316 µM): 106% [middle of 13 runs]
- viability, T/C (compound 1 µM): 102% [middle of 13 runs]
- viability, T/C (compound 3.16 µM): 102% [middle of 13 runs]
- viability, T/C (compound 10 µM): 103% [middle of 13 runs]
- IC50 (compound alone, run of 01/08/2024): > 10000 nM
- IC50 (compound alone, run of 01/19/2024): > 10000 nM

SMILES: COc1cc(C2c3cc4c(cc3C(OC3OC5COC(C)OC5C(O)C3O)C3COC(=O)C23)OCO4)cc(OC)c1O (stereo not drawn)
- viability, T/C (compound 0.0316 µM): 99.8% and 116% and 97.3%
- viability, T/C (compound 0.1 µM): 92.7% and 114% and 91%
- viability, T/C (compound 0.316 µM): 31.5% and 78.4% and 34%
- viability, T/C (compound 1 µM): 9.39% and 19.9% and 12.1%
- viability, T/C (compound 3.16 µM): 7.03% and 8.72% and 9.59%
- viability, T/C (compound 10 µM): 4.41% and 6.81% and 5.26%
- IC50 (curve of compound): 224 nM and 553 nM and 229 nM

SMILES: Cn1ncnc1[C@H]1c2n[nH]c(=O)c3cc(F)cc(c23)N[C@@H]1c1ccc(F)cc1 + Cc1cccc(N(C)C(=O)C2C(O)CCN2c2nc(C)cc(C(F)(F)F)c2C#N)c1
- IC50 (curve of first compound, second compound 0.0316 µM): > 100 nM
- IC50 (curve of first compound, second compound 0.1 µM): > 100 nM
- IC50 (curve of first compound, second compound 0.316 µM): > 100 nM
- IC50 (curve of first compound, second compound 1 µM): > 100 nM
- IC50 (curve of first compound, second compound 3.16 µM): > 100 nM
- IC50 (curve of first compound, second compound 10 µM): > 100 nM
- viability, T/C (second compound 0.0316 µM, first compound 0.000316 µM): 114%
- viability, T/C (second compound 0.0316 µM, first compound 0.001 µM): 107%
- viability, T/C (second compound 0.0316 µM, first compound 0.00316 µM): 115%
- viability, T/C (second compound 0.0316 µM, first compound 0.01 µM): 108%
- viability, T/C (second compound 0.0316 µM, first compound 0.0316 µM): 108%
- viability, T/C (second compound 0.0316 µM, first compound 0.1 µM): 103%
- viability, T/C (second compound 0.1 µM, first compound 0.000316 µM): 102%
- viability, T/C (second compound 0.1 µM, first compound 0.001 µM): 103%
- viability, T/C (second compound 0.1 µM, first compound 0.00316 µM): 98.5%
- viability, T/C (second compound 0.1 µM, first compound 0.01 µM): 100%
- viability, T/C (second compound 0.1 µM, first compound 0.0316 µM): 105%
- viability, T/C (second compound 0.1 µM, first compound 0.1 µM): 107%
- viability, T/C (second compound 0.316 µM, first compound 0.000316 µM): 108%
- viability, T/C (second compound 0.316 µM, first compound 0.001 µM): 104%
- viability, T/C (second compound 0.316 µM, first compound 0.00316 µM): 116%
- viability, T/C (second compound 0.316 µM, first compound 0.01 µM): 104%
- viability, T/C (second compound 0.316 µM, first compound 0.0316 µM): 116%
- viability, T/C (second compound 0.316 µM, first compound 0.1 µM): 104%
- viability, T/C (second compound 1 µM, first compound 0.000316 µM): 100%
- viability, T/C (second compound 1 µM, first compound 0.001 µM): 109%
- viability, T/C (second compound 1 µM, first compound 0.00316 µM): 112%
- viability, T/C (second compound 1 µM, first compound 0.01 µM): 102%
- viability, T/C (second compound 1 µM, first compound 0.0316 µM): 104%
- viability, T/C (second compound 1 µM, first compound 0.1 µM): 97.3%
- viability, T/C (second compound 3.16 µM, first compound 0.000316 µM): 98.6%
- viability, T/C (second compound 3.16 µM, first compound 0.001 µM): 98%
- viability, T/C (second compound 3.16 µM, first compound 0.00316 µM): 96.4%
- viability, T/C (second compound 3.16 µM, first compound 0.01 µM): 113%
- viability, T/C (second compound 3.16 µM, first compound 0.0316 µM): 113%
- viability, T/C (second compound 3.16 µM, first compound 0.1 µM): 104%
- viability, T/C (second compound 10 µM, first compound 0.000316 µM): 109%
- viability, T/C (second compound 10 µM, first compound 0.001 µM): 103%
- viability, T/C (second compound 10 µM, first compound 0.00316 µM): 94.4%
- viability, T/C (second compound 10 µM, first compound 0.01 µM): 100%
- viability, T/C (second compound 10 µM, first compound 0.0316 µM): 111%
- viability, T/C (second compound 10 µM, first compound 0.1 µM): 99.2%
